{"source": "paper PMC9862186", "about": "(International Journal of Molecular Sciences, 2023)", "key": {"in vivo": {"experiment": "in vivo", "description": "A saline solution (0.9% NaCl) was added to a mixture of cinnamaldehyde (density = 1.05 g/mL) and Cremophor® RH 40 (1:1 v/v) in order to obtain a 12.5 mg/mL cinnamaldehyde emulsion in the presence of ethanol (10% of final volume). A group (n = 4) of male Wistar rats (200–250 g) fasted for 24 h was anesthetized during the experimental period and received 0.4 mL via a femoral intravenous infusion (rate = 0.2 mL/min; 2 min) of 12.5 mg/mL cinnamaldehyde emulsion (20 mg/kg cinnamaldehyde dose).\nAt the end of the infusions and at fixed time points, CSF samples (50 μL) were withdrawn and blood samples (100 μL) were collected. The CSF was withdrawn using the cisternal puncture method described by van den Berg et al., which requires a single needle stick and allows the collection of serials (40–50 μL) CSF samples that are virtually blood-free. A total volume of about a maximum of 150 μL of CSF/rat (i.e., three 50 μL samples/rat) was collected during the experimental session, choosing the time points (n = 3–5, taking into account a maximum of three collections per rat) in order to allow the restoring of the CSF physiological volume.\nThe samples were centrifuged at 12,500× g for 5 min, then about 300 μL of supernatant were withdrawn and further centrifuged. […] As a control, a blood sample (100 μL) was collected by each rat before the administrations of the drugs. The control samples were immediately added to 300 μL of ice-cold CH3CN in the absence of internal standard, then treated as described above.\nFor cinnamaldehyde analysis the blood samples were hemolyzed immediately after their collection with 500 μL of ice-cold water, and then 50 μL of 10% sulfosalicylic acid and 50 μL of internal standard (100 μM carbazole dissolved in a water-methanol mixture 50:50 v/v) was added. The samples were extracted twice with 1 mL of water-saturated ethyl acetate, and, after centrifugation at 12,500× g for 10 min, the organic layer was reduced to dryness under a mild nitrogen stream at room temperature. Then, 200 μL of a water-acetonitrile mixture (50:50 v/v) were added, and after centrifugation, 10 μL were analyzed via HPLC (see below) for cinnamaldehyde detection. As a control, a blood sample (100 μL) was collected by each rat before the administration of the drug. The control samples were treated as described above in the absence of internal standard.\nIn particular, all the AUC values referred to the bloodstream were calculated by the trapezoidal method within the last time point detected, and the remaining area was obtained as the ratio between the compound concentration detected at the last time point and the elimination constant (kel), which was obtained from the slope of the semilogarithmic plots (−slope × 2.3). The clearance (Cl) and distribution volume (Vd) values were calculated according to the non-compartmental model as the ratios “dose/AUC” and “Cl/kel”, respectively, where kel is the elimination constant obtained by the slope of semilogarithmic plot.\nThe chromatographic apparatus consisted of a modular system (model LC-10 AD VD pump and model SPD-10A VP variable wavelength UV−vis detector; Shimadzu, Kyoto, Japan) and an injection valve with 20 μL sample loop (model 7725; Rheodyne, IDEX, Torrance, CA, USA). Separations were performed at room temperature on a 5 μm Hypersil BDS C-18 column (150 mm × 4.6 mm i.d.; Alltech Italia Srl, Milan, Italy) equipped with a guard column packed with the same Hypersil material. The volume injection was 10 μL. Data acquisition and processing were performed on a personal computer using CLASS-VP Software, version 7.2.1 (Shimadzu Italia, Milan, Italy).\nThe detector was set at 205 nm."}, "PC12 cells": {"tested_on": "PC12 cells", "experiment": "Dopamine release from neuronal differentiated PC12 cells (ELISA)", "format": "cell-based, rat", "description": "PC12 cell line (RRID:CVCL_0481), derived from rat adrenal gland pheochromocytoma, was a kind gift from Dr Federica Brugnoli from the Department of Translational Medicine, University of Ferrara, Ferrara (Italy). The cells were grown in RPMI-1640 (HiGlutaXL) medium (Microtech, Naples, Italy), supplemented with 100 µg/mL streptomycin and 100 IU/mL penicillin, 10% horse serum (HS), and 5% fetal bovine serum (FBS). PC12 cells were gently removed from the 4 µg/cm^2 collagen IV-coated flask with a rubber scraper, transferred as cell suspension into a Falcon tube and resuspended through a sterile tip to avoid any clumping, then split into separate flasks twice weekly. To differentiate neuronal phenotypes, PC12 cells were seeded in 4 µg/cm^2 collagen IV-coated 12-well plates at a density of 5000 cells/well, and they were then left to adhere to the well for 24 h. […] All the proliferative and differentiated cultures were maintained at 37 °C in a humidified 5% CO2 atmosphere.\nPC12 cells differentiated to neuronal-like phenotype in collagen IV-treated 12-well plates, were first synchronized all to the same circadian phase and cell cycle by a serum shock (50% HS and 50% DMEM HiGlutaXL) for 2 h at 37 °C [49] to achieve a synchronous release of dopamine. Synchronization medium was then aspirated off, cells were washed with 3 × 1 mL and equilibrated for 15 min at 37 °C in 1 mL of Krebs Ringer HEPES (KRH) physiological buffer, following the recipe of Mount et al. (25 mM HEPES/Tris, pH 7.4, 1.2 mM KH2PO4, 125 mM NaCl, 4.8 mM KCl, 1.2 mM MgSO4, 2.2 mM CaCl2, 5.6 mM glucose, 1.0 mM ascorbic acid, 10 µM pargyline, 1.0 µM nomifensine). […] To remove cell debris, all samples of 1 mL incubation KRH at the end of treatments were centrifuged at 1000× g for 20 min at 4 °C and stored at −20 °C until dopamine levels were determined by ELISA assay.\nDopamine levels in 1 mL incubation KRH buffer were detected by means of an ELISA assay, based on the […] ELISA principle for detection of dopamine, following manufacturer’s instructions (IBL International, Hamburg, Germany–catalog no: RE59161; purchased from Tecan Italia S.r.I, Milan, Italy). After the substrate reaction, the intensity of the developed color was proportional to the amount of dopamine, detected at 450 nm using a microplate reader spectrophotometer (Sunrise® Microplate Reader, Tecan Trading AG, Männedorf, Switzerland). Results of samples were determined directly using the standard curve. Results are presented as mean ± SE values of four independent experiments. Data were plotted and analyzed with GraphPad software (Prism, version 7.0, San Diego, CA, USA)."}, "[1]": {"conditions": "rats, cited from earlier work"}, "[2]": {"conditions": "male, Wistar, rat, in vivo, iv, 20 mg/kg"}}, "data": [{"compound": "C=CCc1ccc(O)c(OC)c1", "note": "[Eugenol]", "values": [{"measurement": "Vd", "setting": "in vivo; male, Wistar, rat, in vivo, iv", "value": "3.21 ± 0.247", "unit": "L/kg"}, {"measurement": "clearance", "setting": "in vivo; male, Wistar, rat, in vivo, iv", "value": "6.84 ± 0.12", "unit": "L/h/kg"}, {"measurement": "half-life", "setting": "in vivo; male, Wistar, rat, in vivo, iv", "value": "19.4 ± 2.1", "unit": "min"}, {"measurement": "concentration at 5 min", "setting": "in vivo; [2]", "value": "3.6 ± 0.2", "unit": "µg/mL"}, {"measurement": "concentration at 10 min", "setting": "in vivo; [2]", "value": "2.9 ± 0.1", "unit": "µg/mL"}, {"measurement": "k el", "setting": "in vivo; male, Wistar, rat, in vivo, iv, kel: pseudo first order kinetic elimination rate constant, rat blood, iv 20 mg/kg (eugenol, cinnamaldehyde), 100 mg/kg (D-limonene), eugenol value terminal", "value": 0.0006, "unit": "s⁻¹"}, {"measurement": "C0: concentration in the bloodstream at the end of infusion", "setting": "in vivo; rat blood, iv infusion 2 min, 20 mg/kg eugenol and cinnamaldehyde, 100 mg/kg D-limonene, mean ± SE, n = 4", "value": "16.5 ± 0.2", "unit": "µg/mL"}, {"measurement": "effect on dopamine release over pre-treatment baseline", "setting": "PC12 cells; 25 µM, 5, 15, 30, 60 and 120 min, baseline 393 ± 12 pg/mL, p < 0.001 at 5, 15, 120 min, p < 0.05 at 30, 60 min", "value": "statistically significant increase"}, {"measurement": "incubation time with the higher effect on dopamine release", "setting": "PC12 cells; 25 µM, time course 5, 15, 30, 60, 120 min, U-shaped curve", "value": 120, "unit": "min"}, {"measurement": "concentration giving the lower effect on dopamine release, still significant vs. basal", "setting": "PC12 cells; 0.5, 1, 2, 5 and 25 µM for 5 min, basal release 947 ± 102 pg/mL", "value": 5, "unit": "µM"}, {"measurement": "t1/2 of the second elimination phase", "setting": "[1]; iv eugenol", "value": "13 to 20", "unit": "min"}, {"measurement": "Cmax", "setting": "[1]; oral 40 mg/kg", "value": "about 0.25 μg/mL"}]}]}
